# Experiments:
# [1] = tested on: non-transformed iris cells; experiment: Evaluation of selection agents: growth suppression of non-transformed iris suspension-cultured cells on MS-C medium; format: cell-based, Iris germanica; details: for inhibition of cell growth scored visually: preliminary experiments, five concentrations
# Method: Evaluation of selection agents. […] To determine the efficacy of several commonly used agents for selecting transformed iris cells, the following substances were tested: five antibiotics (methotrexate, hygromycin, geneticin (G418), gentamycin, and phleomycin); three herbicides (glyphosate [N-(Phosphonomethyl)glycine] (Monsanto, St. Louis, Mo.), chlorsulfuron [2-Chloro-N-[[(methoxy-6-methyl-1,3,5-triazin-2-yl)amino]carbonyl]benzenesulfonamide] (E.I. Du Pont de Nemours & Co., Inc., Agricultural Products Dept., Wilmington, Del.) and glufosinate-ammonium (Basta; Hoechst Canada, Inc., Regina, Saskatchewan, Canada)); and one amino acid analog (4-methyl-tryptophan) (Sigma).
# The liquid MS-L medium was removed from a three-week-old iris suspension culture and the cells spread on Whatman No. 1 filter papers (42.5 mm diameter) in small culture plates (60 mm×15 mm), over MS-C medium [MS-L medium with 3 g·L^−1 Phytagel (Sigma Chem. Co., St. Louis, Mo.), as described in Examples 1 and 2] containing increasing amounts of the selection agent. Plates were incubated for three weeks in the dark at 25° C. In preliminary experiments, five concentrations of each selection agent were tested and inhibition of cell growth was scored visually.
# Fresh weights of resultant tissue were measured and mean values, expressed as a percentage of growth by controls (no selection agent). At least five plates were used for each concentration of selection agent.
# [2] = tested on: leaf samples from non-transformed iris plants; experiment: Leaf-bleach assay with paromomycin; set-up: species or system Iris germanica; details: 200 mg·L^−1 paromomycin; leaf samples from control (non-transgenic) plants; five days
# Method: Functional assay of NPTII genes. To test the NPTII expression in transformed iris plants, the leaf-bleach assay was carried out according to Cheng et al. (Plant Physiol., 115:971-980, 1997), with minor modifications described below. Four pieces (≈7-mm) were cut from the second youngest leaf of each plant approximately one month after establishment in growing medium in the greenhouse. One leaf piece was placed in 1 mL of solution containing 25 mg·L^−1 benomyl fungicide [methyl 1-(butylcarbamoyl)-2 benzimidazolecarbamate] (Hi-Yield Chem. Co., Bonham, Tex.) and 0.01% Triton X-100 (Sigma), in a well of 24-well culture plate, as a control. Each of the remaining three pieces were placed in 1 mL of the same solution with either 50, 100, or 200 mg·L^−1 paromomycin (Sigma). Leaf samples from the non-transformed iris plants at a similar developmental stage were used as a negative control. The samples were vacuum-infiltrated for 10 minutes. The plates were then sealed with Parafilm and incubated for five days at 23° C. with a 16 hours photoperiod of 50 μmol·m^−2·s^−1 provided by cool-white fluorescent lamps. In preliminary assays, G418 and hygromycin were also tested, the latter for the functional expression of the hpt gene. The response to all three antibiotics was very similar, so paromomycin was selected to assay the rest of the putative transgenic iris plants because it was least expensive.
# [3] = tested on: suspension-cultured cells of Iris germanica; experiment: Effect of Kin and NAA in MS-I medium on regeneration potential of differentiated clumps; format: cell-based; details: 6 weeks on MS-D with 1.25 μM BA
# Method: Effect of Kin and NAA, a/one and in combination, in MS-I medium. To induce plant morphogenesis from suspension-cultured cells, 16 different combinations of NAA (0.0, 0.5, 2.5, and 12.5 μM) and Kin (0.0, 2.5, 12.5, and 62.5 μM) were evaluated. A 0.5-mL aliquot of the resuspended cells was inoculated on each 15×60 mm plastic plate containing 20 mL MS-I medium with different combinations of Kin and NAA. The cells were spread with a spoon-like spatula to form a uniform layer on the surface of MS-I medium. The plates were sealed with Parafilm® and incubated in the dark at 25° C. The number of differentiated clumps was recorded after five weeks. The clumps were collected and grouped into four size classes: large (>10 mm), medium (5 to 10 mm), small (2 to 5 mm) and very small (<2 mm). The regeneration potential of differentiated clumps was assessed by randomly sampling 30 to 60 clumps from each size class and transferring them to three to six Magenta GA-7 vessels (Sigma Chem. Co., St. Louis, Mo.) containing 50 mL of MS-D medium (Table 1) supplemented with 1.25 μM BA. They were then incubated under light (50 μmol m^−2 s^−1) at 23° C. for six weeks. The total number of regenerating clumps (i.e., differentiated clumps that continued to grow and develop on MS-D medium) was counted, and percentages of regenerating clumps that developed shoots only or plantlets (rooted shoots derived from somatic embryos) were recorded. The regenerated shoots and plantlets were transferred to MS-R medium (Table 1) to promote root development. Each Kin/NAA combination was evaluated in five plates per experiment; the entire experiment was repeated three times.
# [4] = 2.5 μM in MS-I medium (main effect)
# [5] = 12.5 μM in MS-I medium (main effect)
# [6] = 62.5 μM in MS-I medium (main effect)
# [7] = 0.5 μM in MS-I medium (main effect)
compound,measurement,setting,value
gentamycin,inhibition of cell growth scored visually,[1],did not clearly inhibit growth
NC[C@@H]1O[C@H](O[C@H]2[C@@H](O)[C@H](O[C@@H]3[C@@H](O)[C@H](N)C[C@H](N)[C@H]3O[C@H]3O[C@H](CO)[C@@H](O)[C@H](O)[C@H]3N)O[C@@H]2CO)[C@H](N)[C@@H](O)[C@@H]1O [paromomycin],leaf bleaching,[2],almost completely bleached
"CP(=O)(O)CCC(N)C(=O)O (centres unmarked) [Basta, glufosinate-ammonium]",inhibition at 10 µg/mL,"[1]; Iris germanica, 504 h, read-out: cell growth inhibited",~70%
phleomycin,inhibition of cell growth scored visually,[1],did not clearly inhibit growth
"O=C(O)CNCP(=O)(O)O [glyphosate, N-(Phosphonomethyl)glycine]",inhibition of cell growth scored visually,[1],did not clearly inhibit growth
"COc1nc(C)nc(NC(=O)NS(=O)(=O)c2ccccc2Cl)n1 [chlorsulfuron, 2-Chloro-N-[[(methoxy-6-methyl-1,3,5-triazin-2-yl)amino]carbonyl]benzenesulfonamide]",inhibition at 0.5 µg/mL,"[1]; Iris germanica, 504 h, 0.5 mg·L^−1, three weeks on MS-C medium, read-out: cell growth inhibited",~90%
"c1coc(CNc2ncnc3[nH]cnc23)c1 [KIN, kinetin]",Regenerating clumps (%),[3]; [4],41%
same,Regenerating clumps developing PLANTLETS (%),[3]; [4],96%
same,Regenerating clumps developing SHOOTS ONLY (%),[3]; [4],5%
same,Regenerating clumps (%),[3]; [5],44%
same,Regenerating clumps developing PLANTLETS (%),[3]; [5],89%
same,Regenerating clumps developing SHOOTS ONLY (%),[3]; [5],12%
same,Regenerating clumps (%),[3]; [6],45%
same,Regenerating clumps developing PLANTLETS (%),[3]; [6],88%
same,Regenerating clumps developing SHOOTS ONLY (%),[3]; [6],12%
"O=C(O)Cc1cccc2ccccc12 [NAA, 1-naphthaleneacetic acid]",Regenerating clumps (%),[3]; [7],56%
same,Regenerating clumps developing PLANTLETS (%),[3]; [7],94%
same,Regenerating clumps developing SHOOTS ONLY (%),[3]; [7],6%
same,Regenerating clumps (%),[3]; [4],55%
same,Regenerating clumps developing PLANTLETS (%),[3]; [4],89%
same,Regenerating clumps developing SHOOTS ONLY (%),[3]; [4],11%
same,Regenerating clumps (%),[3]; [5],33%
same,Regenerating clumps developing PLANTLETS (%),[3]; [5],94%
same,Regenerating clumps developing SHOOTS ONLY (%),[3]; [5],7%
"Cc1cccc2[nH]cc(C[C@H](N)C(=O)O)c12 [4-methyl-tryptophane, 4-methyl-tryptophan]",inhibition of cell growth scored visually,[1],did not clearly inhibit growth
CN(Cc1cnc2nc(N)nc(N)c2n1)c1ccc(C(=O)N[C@@H](CCC(=O)O)C(=O)O)cc1 [methotrexate],inhibition at 0.05 µg/mL,"[1]; Iris germanica, 504 h, 0.05 mg·L^−1, three weeks on MS-C medium, read-out: cell growth inhibited",~80%

# — US6459017B1, “Iris transformation method” (The State of Oregon Acting By and Through the State Board …, priority 2000, dated 2002)
